# According to patent publication US6492385B2, “Quinuclidine-substituted heteroaryl moieties for treatment of disease” (Pharmacia & Upjohn Company, priority 2000, dated 2002):
# Counter-ions that a name gives are not always drawn.
# Target: α7 nAChR (Rattus norvegicus, UniProt Q05941)
# Test: [3H]-MLA competition binding assay, rat brain membranes
# Chain of α7 nAChR (Q05941 23-502): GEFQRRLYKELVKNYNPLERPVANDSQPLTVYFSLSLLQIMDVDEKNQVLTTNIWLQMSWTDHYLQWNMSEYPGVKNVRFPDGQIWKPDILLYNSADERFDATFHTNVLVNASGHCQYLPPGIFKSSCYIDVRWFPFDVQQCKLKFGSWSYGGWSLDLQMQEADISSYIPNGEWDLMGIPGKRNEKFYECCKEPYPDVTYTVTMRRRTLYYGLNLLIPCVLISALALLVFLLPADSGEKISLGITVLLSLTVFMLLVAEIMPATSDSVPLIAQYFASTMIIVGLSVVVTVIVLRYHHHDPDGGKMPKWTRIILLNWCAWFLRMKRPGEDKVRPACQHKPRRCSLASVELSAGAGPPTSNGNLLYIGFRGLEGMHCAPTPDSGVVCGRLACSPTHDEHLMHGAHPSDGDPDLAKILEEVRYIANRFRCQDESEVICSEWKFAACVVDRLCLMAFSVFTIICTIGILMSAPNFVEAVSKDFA
row,Structure (SMILES),Ki [nM]
1,"COc1ccc(C(=O)N[C@H]2CN3CCC2CC3)s1 [Example 19, N-[(3R)-1-Azabicyclo[2.2.2]oct-3-yl]-5-methoxy-thiophene-2-carboxamide Hydrochloride]",2 to 4
2,"O=C(N[C@H]1CN2CCC1CC2)c1ccc(-c2ccccc2O)s1 [Example 41, N-[(3R)-1-Azabicyclo[2.2.2]oct-3-yl]-5-(2-hydroxyphenyl)-thiophene-2-carboxamide Hydrochloride]",3 to 4
